From US20190075796A1, “Increased walnut yields with brassinosteroid application” (priority 2017, published 2019)

Assays:
walnut cv. Serr = assay: Foliar spray field trial in a walnut orchard, cv. Serr: fruit set and nut weights; format: in vivo; details: all treatments of HBR except HBR 0.4 ppm
Procedure: (§1) Testing was conducted in two contiguous walnut orchards located in Pirque, Metropolitan Region of Chile. The first orchard is of cultivar Serr, planted at 11×11 m and 20 years old. The second orchard is of cultivar Chandler, planted at 7×6 m and 5 years old. In the 2014/2015 season yield of cultivar Serr was 4,300 kilograms of walnuts in shells per hectare, and in cultivar Chandler the yield was 2,300 kilograms of walnuts in shells per hectare.
During the 2014/2015 season, four experimental and one control treatments were applied to the Pirque orchard. Treatments were foliar sprays with solutions of Homobrassinolide (HBR) at 0.4, 4.0 and 20 ppm, and HBR 4.0 ppm+CPPU 10 ppm. Control was water. Treatment of each cultivar took place 10 days after said cultivar reached approximately 10% pistillate flower receptive. Each tree was sprayed with approximately 250 ml of solution. At that volume the sprayed leaves and branches are wetted and excess solution is dripping off the tree. Applications were made to small branches having 2 to 4 terminal buds with pistillate flowers, equivalent to 3 to 12 potential fruits per replication. The experimental design was randomized blocks with 10 replications. […]
The measurement of fruit set was determined by the difference between the number of fruit harvested and the number of flowers/fruitlets sprayed in late flowering. […]

walnut cv. Chandler = assay: Foliar spray field trial in a walnut orchard, cv. Chandler: fruit set and nut weights; format: in vivo
Procedure: as §1
During the 2014/2015 season, four experimental and one control treatments were applied to the Pirque orchard. Treatments were foliar sprays with solutions of Homobrassinolide (HBR) at 0.4, 4.0 and 20 ppm, and HBR 4.0 ppm+CPPU 10 ppm. Control was water. Treatment of each cultivar took place 10 days after said cultivar reached approximately 10% pistillate flower receptive. Each tree was sprayed with approximately 250 ml of solution. At that volume the sprayed leaves and branches are wetted and excess solution is dripping off the tree. Applications were made to small branches having 2 to 4 terminal buds with pistillate flowers, equivalent to 3 to 12 potential fruits per replication. The experimental design was randomized blocks with 10 replications. Ten trees per cultivar received treatment and all treatments were applied to separate spray targets of each tree. The spray targets included pistillate flowers, catkins and leaves.
Walnut flowering of both cultivars in the season was prolonged and irregular, extending for 2 weeks in each cultivar. Bloom was mainly protandrous with catkins fall of 20-30% during the pistillate flowering period for both cultivars. The vegetative growth was normal. When flowering of cv. Serr reached 10 to 20% of receptivity, Aminoethoxy vinyl-glycine was applied at a concentration of 125 ppm to all conditions to delay ripening.
The measurement of fruit set was determined by the difference between the number of fruit harvested and the number of flowers/fruitlets sprayed in late flowering. After harvest, the nuts from the experiment were dried in laboratory at a temperature of 35° C. for 12 hours, and then the nut shell was removed, measuring the weight of both (in shell and shelled) independently.

pollen of cv. Chandler = assay: In vitro pollen germination and pollen tube growth; format: cell-based, walnut; details: 20° C.
Procedure: An in vitro experiment was done to study the effects of the same treatments as Study 1 on pollen of cv. Chandler. The growing media used for pollen germination and tube growth was prepared in Petri dishes, and consisted of a solution of 10% sucrose and 1% agar in 50 mg per liter boric acid, plus either 0.4 ppm HBR, 4.0 ppm HBR, 20 ppm HBR, or 4.0 ppm HBR+10 pm CPPU. The control solution was distilled water. The experimental design was randomized with 4 replications, using Petri dishes as experimental units. Chandler pollen was sown onto the media with a fine brush, and incubated in a growth chamber for 24 hours at 20° C. Observations of pollen germination were done after 12 hours and pollen tube growth after 24 hours respectively. An Olympus CX31 microscope at 40× was used, and photographs were taken with a ProgRes® C3 camera, using the Capture-Pro computational program. The percentage of germination was determined using the GSA Image Analyzer 3.6.5 program, and the pollen tube length with the Qcad program. FIG. 11 is a representative 20× photomicrograph of germinating Chandler pollen.

Compound: CC[C@@H](C(C)C)C(O)C(O)[C@@H](C)[C@H]1CC[C@H]2[C@@H]3COC(=O)[C@H]4C[C@H](O)[C@H](O)C[C@]4(C)[C@H]3CC[C@]12C (stereo in doubt) [HBR, homobrassinolide]
- final weight of shelled walnuts versus control (walnut cv. Serr): greater than control
- fruit set, increase with respect to the control (walnut cv. Chandler; HBR 0.4 ppm): 6.2%
- final weight of walnuts in shell, increase over control (walnut cv. Chandler; HBR 4.0 ppm): 16.9%
- fruit set, increase with respect to the control (walnut cv. Chandler; HBR 4.0 ppm): 5.0%
- final weight of walnuts in shell, increase over control (walnut cv. Chandler; HBR 20 ppm): 29.6%
- fruit set, increase with respect to the control (walnut cv. Chandler; HBR 20 ppm): 13.5%
- pollen germination versus control (pollen of cv. Chandler; 0.4 ppm HBR in medium, observed after 12 hours): less than control
- pollen germination versus control (pollen of cv. Chandler; 4.0 ppm HBR in medium, observed after 12 hours): similar
- pollen tube growth versus control (pollen of cv. Chandler; 4.0 ppm HBR in medium, observed after 24 hours): greater than control
- pollen germination (pollen of cv. Chandler; 20 ppm HBR in medium, observed after 12 hours): no germination
